# Read-outs that look alike come from different tables or passages of the source.
# Key:
# [1] = Solubility in various media (HPLC); type: physicochemical; details: for solubility: unpublished data
# Description: In order to select a solvent for hydrating (i.e., swelling) the cHA gel, the solubilities of QTP hemifumarate and the QTP base in distilled water (DW), phosphate-buffered saline (PBS; pH = 7.4), and ethanol (EtOH) were determined by high-performance liquid chromatography (HPLC). Briefly, an excess amount of QTP hemifumarate or QTP base was added to 1 mL of each solvent and completely vortex-mixed with vortex shaker (Vortex-Genie 2; Scientific Industries, Inc., Bohemia, NY, USA) at […] 37 °C for 1 day. Upon reaching the steady state, each sample was centrifuged and filtered to eliminate undissolved fractions. An HPLC system equipped with an automatic injector (Waters 717 plus), a pump (Waters 1515; Waters Company, Milford, MA, USA), and a UV/VIS detector (Waters 2487) connected with a reverse-phase C18 column (Kinetex C18; 250 × 4.6 mm, 5 μm; Phenomenex, Torrance, CA, USA) was utilized for measuring the concentration of QTP in each medium. The flow rate of the mobile phase and the injection volume of the specimen were set to 1.0 mL/min and 20 μL, respectively. The mobile phase consisted of 30 mM ammonium acetate in DW (pH 6.0) and methanol (30:70, v/v). The absorption wavelength was set to 238 nm for detection and the retention time of QTP was 14 min [23].
# The QTP base precipitate was prepared using a previously reported desalting method with a slight modification. Briefly, QTP hemifumarate (10 mg) was solubilized in a 1 N HCl solution (0.7 mL), and then, a 1 N NaOH solution (0.8 mL) was added for precipitating the QTP base. The sample was then centrifuged at 16,000× g for 5 min and the supernatant portion was eliminated. After adding 1 mL of DW to the precipitate, it was centrifuged again, and the supernatant was removed. Finally, the QTP base precipitate was freeze-dried at −70 °C for 48 h for further use.
# [2] = biological target: T1, HAase (from bovine testes) (Bos taurus, UniProt Q2YDK3); test: In vitro degradation of cHA hydrogels in PBS containing HAase; type: in vitro ADME; details: QCT loaded in cHA hydrogels, 8 h, 5 U/mL HAase
# T1 construct: purchased Sigma-Aldrich Co. (St. Louis, MO, USA); host or cells: bovine testes (tissue-derived preparation)
# T1 sequence (Q2YDK3 36-553): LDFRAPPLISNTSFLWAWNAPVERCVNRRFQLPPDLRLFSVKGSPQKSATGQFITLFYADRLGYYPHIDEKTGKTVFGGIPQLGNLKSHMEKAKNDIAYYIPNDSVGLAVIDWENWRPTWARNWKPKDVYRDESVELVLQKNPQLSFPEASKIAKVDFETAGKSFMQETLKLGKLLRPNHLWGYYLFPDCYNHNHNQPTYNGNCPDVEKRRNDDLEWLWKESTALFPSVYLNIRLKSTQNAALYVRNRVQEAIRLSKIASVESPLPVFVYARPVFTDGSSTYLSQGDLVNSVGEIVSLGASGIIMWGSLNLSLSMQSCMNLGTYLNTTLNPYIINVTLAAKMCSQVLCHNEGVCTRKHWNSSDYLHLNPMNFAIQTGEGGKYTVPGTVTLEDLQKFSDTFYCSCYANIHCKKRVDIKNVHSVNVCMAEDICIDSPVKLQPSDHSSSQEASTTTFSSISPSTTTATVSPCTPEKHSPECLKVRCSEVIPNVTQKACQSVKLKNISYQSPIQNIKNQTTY
# Description: The in vitro degradation feature of the cHA hydrogel structures was investigated by monitoring the mass change of the hydrogels compared to their initial weight according to a previously reported, slightly modified method. Briefly, to evaluate the weight change of the cHA and QCT-loaded cHA hydrogels (i.e., cHA/QCT1, cHA/QCT3, and cHA/QCT5), each gel specimen (approximately 1.1 g) was placed into 10 mL of a PBS solution containing 5 U/mL of HAase. Upon immersion in the media, the weight of the hydrogels was measured at 2, 4, 6, and 8 h. The remaining weight percentage (%) of each hydrogel compared to the initial weight was recorded.
# [3] = In vitro release of QTP (dialysis bag method); type: physicochemical; details: within 8 h; PBS with 0.5% SLS, 37 °C
# Description: The release of QTP from the cHA hydrogels was measured using the dialysis bag method. Briefly, aliquots of the free QTP solution (in ethanol/PEG 400/PBS = 1/1/2 (v/v/v)) and the QTP-loaded hydrogels (i.e., cHA/QTP and cHA/QTP/QCT5) (corresponding to 12 mg of QTP) were loaded into dialysis membranes (2 kDa of molecular weight cut-off; Cellu Sep H1, Membrane Filtration Products Ltd., Seguin, TX, USA). In case of cHA/QTP/QCT5 + HAase group, HAase (1 mg/mL) was added to the cHA/QTP/QCT5 hydrogel. Each membrane sac was immersed in PBS (20 mL) containing 0.5% SLS, and then they were agitated in a shaking water bath (37 °C) at 50 rpm. Aliquots of the release media were collected at 0.5, 1, 2, 4, 6, 8, 24, 48, 72, 96, 144, 168, 192, 288, 336, and 360 h, and the same volume of fresh medium was replenished each time. The QTP concentrations in the release media were quantitatively determined by the HPLC method described above.
# [4] = rats, intragastric administration; cited from earlier work
structure (smiles),measurement,setting,value
"O=c1c(O)c(-c2ccc(O)c(O)c2)oc2cc(O)cc(O)c12 [QCT, quercetin]",solubility,"[1]; ethanol, organic solvent or mixture, EtOH, read-out: Solubility in EtOH",17.6 ± 1.05 mg/mL
same,solubility,"[1]; water, read-out: Solubility in water",< 0.01 mg/mL
same,HAase inhibition,[2],inhibited HAase in a dose-dependent manner
"OCCOCCN1CCN(C2=Nc3ccccc3Sc3ccccc32)CC1 [QTP base, quetiapine]",solubility at 1 day,"[1]; ethanol, organic solvent or mixture, thermodynamic from solid, EtOH, Figure 2A",> 50 mg/mL
"OCCOCCN1CCN(C2=Nc3ccccc3Sc3ccccc32)CC1 [QTP, quetiapine]",QTP diffused from the dialysis membrane,[3],over 90%
same,Biological half-life,[4],2.1 h
